Ki data for one compound are collected here from patent US11952349B2, “Anti-cancer nuclear hormone receptor-targeting compounds” (Nuvation Bio Inc., priority 2019, dated 2024).

pKi: −log10 of the molar value. Some results are limits rather than exact numbers.

By pKi is commonly meant −log10 of the Ki, conventionally taken in molar units. Lower therefore signals a high Ki.

The target in the assay is T1, AR in LNCaP cytosol (Homo sapiens, UniProt P10275, T878A).
T1 construct: AR in LNCaP cytosol was used; endogenous in cells; host or cells: LNCaP cells (cytosol)
T1 sequence (P10275 1-920 T878A): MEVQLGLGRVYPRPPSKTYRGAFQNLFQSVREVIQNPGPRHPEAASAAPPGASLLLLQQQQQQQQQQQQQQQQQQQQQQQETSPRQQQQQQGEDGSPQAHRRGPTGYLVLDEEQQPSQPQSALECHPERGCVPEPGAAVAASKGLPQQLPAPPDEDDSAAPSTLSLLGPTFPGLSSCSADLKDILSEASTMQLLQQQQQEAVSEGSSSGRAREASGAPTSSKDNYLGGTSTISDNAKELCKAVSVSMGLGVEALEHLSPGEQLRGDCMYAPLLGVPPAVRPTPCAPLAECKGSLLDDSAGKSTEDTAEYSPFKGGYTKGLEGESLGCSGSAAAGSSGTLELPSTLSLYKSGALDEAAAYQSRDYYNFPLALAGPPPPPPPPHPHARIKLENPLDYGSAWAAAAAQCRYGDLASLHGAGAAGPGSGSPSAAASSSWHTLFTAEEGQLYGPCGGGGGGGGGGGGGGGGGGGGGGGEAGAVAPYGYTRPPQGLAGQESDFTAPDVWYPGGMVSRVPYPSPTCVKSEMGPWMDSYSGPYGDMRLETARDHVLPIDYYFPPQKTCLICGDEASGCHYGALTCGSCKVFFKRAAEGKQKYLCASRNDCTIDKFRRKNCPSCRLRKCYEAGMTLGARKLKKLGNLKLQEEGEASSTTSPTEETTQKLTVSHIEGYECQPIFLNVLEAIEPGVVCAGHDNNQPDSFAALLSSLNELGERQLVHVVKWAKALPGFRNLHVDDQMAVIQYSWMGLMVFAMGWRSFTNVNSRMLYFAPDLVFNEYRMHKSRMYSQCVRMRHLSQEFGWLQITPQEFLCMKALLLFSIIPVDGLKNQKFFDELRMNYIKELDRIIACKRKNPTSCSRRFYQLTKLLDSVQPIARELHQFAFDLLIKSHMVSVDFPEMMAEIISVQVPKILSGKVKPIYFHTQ
The experiment in a line: AR binding assay, 3H-methyltrienolone (Biological Example 1). The conditions noted are these: Table 6, in vitro NHR binding; Ki=IC50/(1+[L]/Kd), [L] 1 nM, Kd 0.332 nM. As to the method:
The following methods are for evaluating the in vitro biology properties of the test articles. • a. RBC HotSpot Poly(ADP-ribose) Polymerases 1 (PARP1) and Poly(ADP-ribose) Polymerases 2 (PARP2) Assays: The assay was conducted at Reaction Biology Corporation (RBC; Malvern, PA). The assay principle is radioisotope-based filter binding assay where incorporation of radioisotope-labeled NAD^+ into the substrate captured on filter is detected after washout free NAD^+. Data were analyzed using Excel and GraphPad Prism software for IC50 curve fits. Each assay was conducted with PJ34 as a positive control. […] After incubation for 2 hrs at room temperature, the reaction mixture was filtered and washed with 0.75% phosphoric acid for radioactivity detection. • ii. […] After incubation for 2 hrs at room temperature, the reaction mixture was filtered and washed with 0.75% phosphoric acid for radioactivity detection. • b. […] IC50 s were determined using 8 concentrations/compound. […] Radioactivity is counted using a TriCarb 2910 TR scintillation counter (PerkinElmer). […] The Ki values were further calculated using the equation below where [L] is the radioligand concentration (1 nM) used in this study. […]

In the case of `Cn1ncnc1C1c2n[nH]c(=O)c3cc(F)cc(c23)N[C@@H]1c1ccc(NC(=O)CCCCCO[C@@H]2CC[C@H]3[C@@H]4CC[C@H]5CCCC[C@]5(C)[C@H]4CC[C@]23C)cc1` (stereo partly drawn) [Compound 1128, 6-((5R,8R,9S,10S,13S,14S,17R)-10,13-dimethylhexadecahydro-1H-cyclopenta[a]phenanthren-17-yloxy)-N-(4-((8S)-5-fluoro-9-(1-methyl-1H-1,2,4-triazol-5-yl)-3-oxo-3,7,8,9-tetrahydro-2H-pyrido[4,3,2-de]phthalazin-8-yl)phenyl)hexanamide], the pKi was < 5.13.
